Results reported in PubChem BioAssay (NCI).
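In this assay, cells in 96-well plates receive the compound at five concentrations for 48 hours. Endpoints are linearly interpolated between the surrounding concentrations. At the TGI there is no net growth.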

Columns and labels:
Experiment in all cases: inhibition of tumour cell growth, NCI panel, 48 h
[1] = system: HOP-92 NSCLC
[2] = system: UACC-257 melanoma
[3] = system: HS 578T breast
[4] = system: CAKI-1 renal
[5] = system: RPMI-8226 leukemia
[6] = system: SF-268 CNS
[7] = system: SW-620 colon
[8] = system: IGROV1 ovarian
[9] = system: OVCAR-4 ovarian
[10] = system: NCI-H522 lung
[11] = system: BT-549 breast
[12] = system: RXF 393 renal
[13] = system: UACC-62 melanoma
[14] = system: HOP-62 NSCLC
[15] = system: SR leukemia
[16] = system: OVCAR-8 ovarian
[17] = system: SF-295 CNS
[18] = system: PC-3 prostate
[19] = system: MDA-N
[20] = system: 786-0 renal
[21] = system: SK-MEL-2 melanoma
[22] = system: HCT-15 colon
[23] = system: EKVX NSCLC
[24] = system: OVCAR-5 ovarian
[25] = system: U251 CNS
[26] = system: SNB-19 CNS
[27] = system: M14 melanoma
[28] = system: TK-10 renal
[29] = system: NCI/ADR-RES ovarian
[30] = system: MDA-MB-435
[31] = system: OVCAR-3 ovarian
[32] = system: KM12 colon
[33] = system: MOLT-4 leukemia
[34] = system: COLO 205 colon
[35] = system: MALME-3M melanoma
[36] = system: SK-MEL-28 melanoma
[37] = system: UO-31 renal
[38] = system: CCRF-CEM leukemia
[39] = system: NCI-H226 lung
[40] = system: SN12C renal
[41] = system: SK-MEL-5 melanoma
[42] = system: HL-60(TB) leukemia
[43] = system: HCC-2998 colon
[44] = system: ACHN renal
[45] = system: MDA-MB-231 breast
[46] = system: SF-539 CNS
[47] = system: HT29 colon
[48] = system: K-562 leukemia
[49] = system: SK-OV-3 ovarian
[50] = system: A549 NSCLC
[51] = system: T-47D breast
[52] = system: MCF7 breast
[53] = system: A498 renal
[54] = system: SNB-75 CNS
[55] = system: HCT-116 colon
[56] = system: NCI-H460 lung
[57] = system: LOX IMVI melanoma
[58] = system: DU-145 prostate
[59] = system: NCI-H23 lung

CN1c2ccc(O)c(O)c2-c2cc(O)cc3c2C1CCC3 (centres undefined)
TGI [1]: 33.3 µM | TGI [2]: 42.2 µM | TGI [3]: > 72.9 µM | TGI [4]: 48.9 µM | TGI [5]: 25.8 µM | TGI [6]: 33 µM | TGI [7]: 63.5 µM | TGI [8]: 27.9 µM | TGI [9]: 28.4 µM | TGI [10]: 28.4 µM | TGI [11]: 39.8 µM | TGI [12]: 24.3 µM | TGI [13]: 32.3 µM | TGI [14]: 32.6 µM | TGI [15]: 24.9 µM | TGI [16]: 65.6 µM | TGI [17]: > 100 µM | TGI [18]: 49.2 µM | TGI [19]: 38.3 µM | TGI [20]: 35.5 µM | TGI [21]: 58.6 µM | TGI [22]: 59.4 µM | TGI [23]: 46.9 µM | TGI [24]: 50.7 µM | TGI [25]: > 65 µM | TGI [26]: > 100 µM | TGI [27]: 34.8 µM | TGI [28]: 32.9 µM | TGI [29]: > 64.6 µM | TGI [30]: 31 µM | TGI [31]: 19.5 µM | TGI [32]: > 61 µM | TGI [33]: 35.6 µM | TGI [34]: 47.5 µM | TGI [35]: 31.3 µM | TGI [36]: 48.7 µM | TGI [37]: 29.6 µM | TGI [38]: 9.61 µM | TGI [39]: > 60.2 µM | TGI [40]: 51.7 µM | TGI [41]: 35.5 µM | TGI [42]: 39.2 µM | TGI [43]: 49.1 µM | TGI [44]: 31.3 µM | TGI [45]: > 66.1 µM | TGI [46]: 42.2 µM | TGI [47]: 66.2 µM | TGI [48]: 40.8 µM | TGI [49]: > 100 µM | TGI [50]: > 74.1 µM | TGI [51]: 42.6 µM | TGI [52]: 41.5 µM | TGI [53]: > 100 µM | TGI [54]: 34.4 µM | TGI [55]: 47.2 µM | TGI [56]: > 59.5 µM | TGI [57]: 26.3 µM | TGI [58]: 30.6 µM | TGI [59]: 58.3 µM
